# Measured values: patent US20230382924A1, “MODULATORS OF CYSTIC FIBROSIS TRANSMEMBRANE CONDUCTANCE REGULATOR” (VERTEX PHARMACEUTICALS INCORPORATED, priority 2020, published 2023)
# Experiments:
# CFTR [1] = target: T1, CFTR (Homo sapiens, UniProt P13569); test: Membrane Potential Dye, Enteroid Assay B; format: cell-based; conditions: Table 9; for EC50: read-out: Ent. B EC50
# Protocol: Base medium (ADF+++) consisted of Advanced DMEM/Ham's F12, 2 mM Glutamax, 10 mM HEPES, […] penicillin/streptomycin.
# Bath 1 Buffer consisted of 1 mM MgCl2, 160 mM NaCl, 4.5 mM KCl, 10 mM HEPES, 10 mM Glucose, 2 mM CaCl2).
# Chloride Free Buffer consisted of 1 mM Magnesium Gluconate, 2 mM Calcium Gluconate, 4.5 mM Potassium Gluconate, 160 mM Sodium Gluconate, 10 mM HEPES, 10 mM Glucose.
# Bath 1 Dye Solution consisted of Bath 1 Buffer, 0.04% Pluronic F127, 20 μM Methyl Oxonol, 30 μM CaCCinh-A01, 30 μM Chicago Sky Blue.
# Chloride Free Dye Solution consisted of Chloride Free Buffer, 0.04% Pluronic F127, 20 μM Methyl Oxonol, 30 μM CaCCinh-A01, 30 μM Chicago Sky Blue.
# 3. Enteroid Cell Harvesting and Seeding
# Cells were recovered in cell recovery solution, collected by centrifugation at 650 rpm for 5 min at 4° C., resuspended in TryPLE and incubated for 5 min at 37° C. Cells were then collected by centrifugation at 650 rpm for 5 min at 4° C. and resuspended in IEMM containing 10 μM ROCK inhibitor (RI).
# 5. Membrane Potential Dye, Enteroid Assay B
# Briefly, cells were washed 5 times in Bath 1 Buffer. Bath 1 Dye Solution was added and the cells were incubated for 25 min at room temperature. Following dye incubation, cells were washed 3 times in Chloride Free Dye Solution. Chloride transport was initiated by addition of Chloride Free Dye Stimulation Solution and the fluorescence signal was read for 15 min.
# CFTR [2] = target: T1, CFTR; test: Membrane Potential Dye, Enteroid Assay A; format: cell-based; conditions: for EC50: read-out: Ent. A EC50
# Outline: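 Signal is reported as % Activity relative to a triple CFTR modulator control (3 μM + 3 μM + 300 nM acute). Read-out: membrane potential fluorescence (20 μM methyl oxonol) monitored for 15 min after chloride-free stimulation. Dye loading took 25 min at room temperature in Bath 1 buffer containing CaCC blockers.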
# T1 sequence (P13569 with tags, fused parts or gaps DEL508-508): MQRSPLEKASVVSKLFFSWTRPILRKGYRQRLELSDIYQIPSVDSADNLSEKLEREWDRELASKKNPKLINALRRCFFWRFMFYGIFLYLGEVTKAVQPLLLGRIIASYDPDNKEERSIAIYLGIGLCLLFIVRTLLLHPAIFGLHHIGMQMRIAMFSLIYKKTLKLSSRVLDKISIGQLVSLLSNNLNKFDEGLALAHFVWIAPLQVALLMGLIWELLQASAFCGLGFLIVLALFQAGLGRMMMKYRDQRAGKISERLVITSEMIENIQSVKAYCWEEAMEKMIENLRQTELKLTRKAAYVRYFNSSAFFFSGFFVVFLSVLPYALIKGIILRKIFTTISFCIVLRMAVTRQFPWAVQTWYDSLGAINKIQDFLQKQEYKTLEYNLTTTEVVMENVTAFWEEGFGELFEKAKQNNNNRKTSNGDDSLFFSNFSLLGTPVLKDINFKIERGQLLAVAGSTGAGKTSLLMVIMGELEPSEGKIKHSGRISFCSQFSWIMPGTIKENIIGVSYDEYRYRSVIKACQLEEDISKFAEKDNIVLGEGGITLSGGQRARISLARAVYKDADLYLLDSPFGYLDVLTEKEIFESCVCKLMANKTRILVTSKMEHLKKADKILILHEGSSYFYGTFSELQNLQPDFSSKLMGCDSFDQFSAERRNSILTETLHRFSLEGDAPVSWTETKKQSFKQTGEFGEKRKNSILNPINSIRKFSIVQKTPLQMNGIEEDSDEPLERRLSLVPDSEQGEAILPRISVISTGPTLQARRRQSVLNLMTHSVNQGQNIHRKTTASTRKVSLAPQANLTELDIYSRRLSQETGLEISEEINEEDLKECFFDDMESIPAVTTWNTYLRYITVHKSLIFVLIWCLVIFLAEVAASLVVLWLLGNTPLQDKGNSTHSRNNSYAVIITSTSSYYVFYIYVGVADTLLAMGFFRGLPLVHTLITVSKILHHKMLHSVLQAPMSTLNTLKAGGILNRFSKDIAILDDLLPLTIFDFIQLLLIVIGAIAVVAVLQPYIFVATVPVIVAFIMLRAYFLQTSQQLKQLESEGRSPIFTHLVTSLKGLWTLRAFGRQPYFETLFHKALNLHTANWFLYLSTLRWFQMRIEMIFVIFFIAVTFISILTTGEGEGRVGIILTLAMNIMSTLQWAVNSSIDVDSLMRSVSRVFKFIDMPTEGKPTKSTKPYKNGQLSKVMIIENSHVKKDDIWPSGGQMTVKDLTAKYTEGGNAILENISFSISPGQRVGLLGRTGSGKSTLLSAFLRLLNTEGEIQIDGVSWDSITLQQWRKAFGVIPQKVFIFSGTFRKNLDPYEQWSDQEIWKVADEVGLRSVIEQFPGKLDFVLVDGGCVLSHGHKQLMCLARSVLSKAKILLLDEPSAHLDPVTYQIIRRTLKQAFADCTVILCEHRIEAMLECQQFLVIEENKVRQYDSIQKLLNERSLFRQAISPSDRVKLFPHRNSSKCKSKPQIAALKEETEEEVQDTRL
Structure (SMILES),EC50 (CFTR [1]) [µM],Ent. B Max Activity (CFTR [1]),also measured
Cc1cccc(C)c1-c1cc2nc(n1)NS(=O)(=O)c1cccc(c1)C(=O)NC[C@H](c1ccc(CC[Si](C)(C)C)cc1)O2 (stereo in doubt) [Compound 123],< 1,,
Cc1cccc(C)c1-c1cc2nc(n1)NS(=O)(=O)c1cccc(c1)C(=O)NC[C@H](c1ccc(CC[Si](C)(C)C)cc1)O2 (stereo in doubt) [Compound 124],< 1,,
Cc1cccc(C)c1-c1cc2nc(n1)NS(=O)(=O)c1cccc(c1)C(=O)NC[C@H](c1ccc(C[Si](C)(C)C)cc1)O2 (stereo in doubt) [Compound 125],< 1,,
Cc1cccc(C)c1-c1cc2nc(n1)NS(=O)(=O)c1cccc(c1)C(=O)NC[C@H](c1ccc(C[Si](C)(C)C)cc1)O2 (stereo in doubt) [Compound 126],< 1,,
Cc1cccc(C)c1-c1cc2nc(n1)NS(=O)(=O)c1cc(n(C)n1)C(=O)N[C@H](C)C(c1ccc(C(C)(C)C)cc1)O2 (stereo in doubt) [Compound 172],< 1,++ (++ is 30-60%),
"O=C1N[C@@H]2CCCCCC/C=C/c3ccccc3-c3cc(nc(n3)NS(=O)(=O)c3cccc1c3)OC2 [Compound 36, (10E,18R)-30-oxa-26λ^6-thia-19,27,29,32-tetraazapentacyclo[16.11.2.13,28.121,25.04,9]tritriaconta-1,3(32),4(9),5,7,10,21(33),22,24,28-decaene-20,26,26-trione]",< 1,+++ (+++ is >60%),
"O=C1N[C@@H]2CCCCCCCCc3ccccc3-c3cc(nc(n3)NS(=O)(=O)c3cccc1c3)OC2 [Compound 37, (18R)-30-Oxa-26λ^6-thia-19,27,29,32-tetraazapentacyclo[16.11.2.13,28.121,25.04,9]tritriaconta-1,3(32),4(9),5,7,21(33),22,24,28-nonaene-20,26,26-trione]",< 1,+++ (+++ is >60%),
"Cc1cccc(C)c1-c1cc2nc(n1)NS(=O)(=O)c1cc(nn1C)C(=O)N[C@H](CC(C)(C)C)CO2 [Compound 77, (10R)-15-(2,6-Dimethylphenyl)-10-(2,2-dimethylpropyl)-5-methyl-3,3-dioxo-12-oxa-3λ^6-thia-2,5,6,9,16,17-hexazatricyclo[11.3.1.14,7]octadeca-1(17),4(18),6,13,15-pentaen-8-one]",1 to 3,++ (++ is 30-60%),
CC(C)C[C@@H]1COc2cc(C3(C)CC3)nc(n2)NS(=O)(=O)c2cccc(c2)C(=O)N1 [Compound 164],,+ (+ is <30%),
Cc1cccc(C)c1-c1cc2nc(n1)NS(=O)(=O)c1cc(n(C)n1)C(=O)NCC(CC(C)C)(CC(C)C)CO2 [Compound 173],1 to 3,++ (++ is 30-60%),
O=C1N[C@@H]2CCCCCCc3ccccc3-c3cc(nc(n3)NS(=O)(=O)c3cccc1c3)OC2 [Compound 216],< 1,+++ (+++ is >60%),
O=C1N[C@@H]2CCCCCCCc3ccccc3-c3cc(nc(n3)NS(=O)(=O)c3cccc1c3)OC2 [Compound 217],< 1,+++ (+++ is >60%),
O=C1N[C@@H]2CCCCC/C=C/c3ccccc3-c3cc(nc(n3)NS(=O)(=O)c3cccc1c3)OC2 [Compound 218],< 1,+++ (+++ is >60%),
O=C1N[C@@H]2CCCC/C=C/c3ccccc3-c3cc(nc(n3)NS(=O)(=O)c3cccc1c3)OC2 [Compound 219],< 1,+++ (+++ is >60%),
Cc1cccc(C)c1-c1cc2nc(n1)NS(=O)(=O)c1cc(no1)C(=O)N[C@H](CC(C)(C)C)CO2 [Compound 357],1 to 3,++ (++ is 30-60%),
Cc1cccc(C)c1-c1cc2nc(n1)NS(=O)(=O)c1cc(n(C)n1)C(=O)N[C@H](CC(C)(C)C)CO2 [Compound 358],< 1,+++ (+++ is >60%),
Cc1cccc(C)c1-c1cc2nc(n1)NS(=O)(=O)c1cccc(c1)C(=O)N[C@H](COCc1ccccc1)CO2 [Compound 486],,,Ent. A Max Activity (CFTR [2]; Enteroid Assay A): +++ (+++ is >600%); EC50 (CFTR [2]; Enteroid Assay A): 1 to 3 µM
Cc1cccc(C)c1-c1cc2nc(n1)NS(=O)(=O)c1cccc(c1)C(=O)NC1c3ccccc3CC1O2 (stereo not shown) [Compound 489],,,Ent. A Max Activity (CFTR [2]; Enteroid Assay A): +++ (+++ is >600%); EC50 (CFTR [2]; Enteroid Assay A): < 1 µM
Cc1cccc(C)c1-c1cc2nc(n1)NS(=O)(=O)c1cccc(c1)C(=O)NCC(CC(C)C)O2 (stereo not shown) [Compound 490],,,Ent. A Max Activity (CFTR [2]; Enteroid Assay A): +++ (+++ is >600%); EC50 (CFTR [2]; Enteroid Assay A): 1 to 3 µM
Cc1cccc(C)c1-c1cc2nc(n1)NS(=O)(=O)c1cccc(c1)C(=O)N[C@@H](CC(C)C)CO2 [Compound 491],,,EC50 (CFTR [2]; Enteroid Assay A): 1 to 3 µM
Cc1cccc(C)c1-c1cc2nc(n1)NS(=O)(=O)c1cccc(c1)C(=O)NC1(CCC(C(C)(C)C)CC1)CO2 (stereo not shown) [Compound 495],,,Ent. A Max Activity (CFTR [2]; Table 9): +++ (+++ is >60%); EC50 (CFTR [2]; Table 9): < 1 µM

# Further lines, with some results ahead:
EC50 (CFTR [1]) [µM],Ent. B Max Activity (CFTR [1]),Structure (SMILES),also measured
< 1,+++ (+++ is >60%),Cc1cccc(C)c1-c1cc2nc(n1)NS(=O)(=O)c1cccc(c1)C(=O)NC[C@@H](CC(C)C)CO2 (stereo in doubt) [Compound 367],
< 1,++ (++ is 30-60%),Cc1cccc(C)c1-c1cc2nc(n1)NS(=O)(=O)c1cccc(c1)C(=O)NC[C@H](CC(C)C)CO2 (stereo in doubt) [Compound 368],
< 1,+++ (+++ is >60%),"Cc1cccc(/C=C/C2CC2)c1-c1cc2nc(n1)NS(=O)(=O)c1cccc(c1)C(=O)N[C@H](CC(C)C)CO2 [Compound 53, (11R)-6-[2-[(E)-2-Cyclopropylvinyl]-6-methyl-phenyl]-11-isobutyl-2,2-dioxo-9-oxa-2λ^6-thia-3,5,12,19-tetrazatricyclo[12.3.1.14,8]nonadeca-1(18),4(19),5,7,14,16-hexaen-13-one]",
3 to 30,++ (++ is 30-60%),Cc1cccc(C)c1-c1cc2nc(n1)NS(=O)(=O)c1cccc(c1)C(=O)N[C@H](CC(C)(C)O)CO2 [Compound 65],
3 to 30,+ (+ is <30%),"Cc1cccc(C)c1-c1cc2nc(n1)NS(=O)(=O)c1cccc(c1)C(=O)N[C@H](CCC(C)(C)O)CO2 [Compound 67, (11R)-6-(2,6-Dimethylphenyl)-11-(3-hydroxy-3-methylbutyl)-2,2-dioxo-9-oxa-2λ^6-thia-3,5,12,19-tetrazatricyclo[12.3.1.14,8]nonadeca-1(18),4(19),5,7,14,16-hexaen-13-one]",
1 to 3,+++ (+++ is >60%),Cc1cccc(C)c1-c1cc2nc(n1)NS(=O)(=O)c1cccc(c1)C(=O)NCC(c1ccc(CCCO)cc1)O2 (stereo not shown) [Compound 122],
3 to 30,++ (++ is 30-60%),Cc1cccc(O)c1-c1cc2nc(n1)NS(=O)(=O)c1cccc(c1)C(=O)N[C@H](CC(C)C)CO2 [Compound 163],
< 1,+++ (+++ is >60%),Cc1cccc2c1-c1cc3nc(n1)NS(=O)(=O)c1cccc(c1)C(=O)N[C@H](CCCCCCCC2)CO3 [Compound 213],
< 1,++ (++ is 30-60%),C=CCCCCCC[C@@H]1COc2cc(-c3c(C)cccc3C=C)nc(n2)NS(=O)(=O)c2cccc(c2)C(=O)N1 [Compound 215],
< 1,+++ (+++ is >60%),C=CCCCCC[C@@H]1COc2cc(-c3ccccc3C=C)nc(n2)NS(=O)(=O)c2cccc(c2)C(=O)N1 [Compound 220],
< 1,+++ (+++ is >60%),C=CCCCC[C@@H]1COc2cc(-c3ccccc3C=C)nc(n2)NS(=O)(=O)c2cccc(c2)C(=O)N1 [Compound 221],
< 1,+++ (+++ is >60%),Cc1cccc(C)c1-c1cc2nc(n1)NS(=O)(=O)c1cccc(c1)C(=O)NCc1cc(Cl)ccc1O2 [Compound 295],
< 1,+++ (+++ is >60%),Cc1cccc(CC2CCCCC2)c1-c1cc2nc(n1)NS(=O)(=O)c1cccc(c1)C(=O)N[C@H](CC(C)C)CO2 [Compound 387],
< 1,++ (++ is 30-60%),Cc1cccc(C=C2CCCCC2)c1-c1cc2nc(n1)NS(=O)(=O)c1cccc(c1)C(=O)N[C@H](CC(C)C)CO2 [Compound 388],
< 1,+++ (+++ is >60%),Cc1cccc(CCC(C)C)c1-c1cc2nc(n1)NS(=O)(=O)c1cccc(c1)C(=O)N[C@H](CC(C)C)CO2 [Compound 389],
< 1,+++ (+++ is >60%),Cc1cccc(/C=C/C(C)C)c1-c1cc2nc(n1)NS(=O)(=O)c1cccc(c1)C(=O)N[C@H](CC(C)C)CO2 [Compound 390],
< 1,+++ (+++ is >60%),Cc1cccc(CCC2CC2)c1-c1cc2nc(n1)NS(=O)(=O)c1cccc(c1)C(=O)N[C@H](CC(C)C)CO2 [Compound 391],
